Like-named read-outs stand apart in the source and are kept apart here.
Columns and labels:
[1] = test system: Haloperidol-Induced Catalepsy; experiment: Effect on haloperidol-induced catalepsy; assay type: in vivo, male ddY mice; conditions: test compound 10 mg/kg orally; for inhibition in vivo at 10 mg/kg: Mus musculus, po, 1 h, rate of decrease in total score based on control group, read-out: Remission Rate (%); for Number of the Animals Showing Remission: of 5 mice, catalepsy score not more than 4 points; for Total Score: total catalepsy score of 5 mice (25 points at the full)
Procedure: The experiment was performed by using several groups of 5-weeks-old male ddY mice (weighing 22 to 24 g, Japan SLC), each group consisting of 5 mice. Haloperidol (Janssen Pharmaceutica) suspended in 0.3% CMC was intraperitoneally administered to each mouse at a dose of 1.0 mg/kg. Test compounds were suspended in 0.3% CMC or in injectable distilled water (Otsuka Pharmaceutical Co., Ltd.) containing Tween 80. L-DOPA (Kyowa Hakko Kogyo Co., Ltd.) and benserazide hydrochloride (Kyowa Hakko Kogyo Co., Ltd.) were suspended in 0.3% CMC. One hour after the haloperidol administration, the test compound suspensions and the control suspension [0.3% CMC or injectable distilled water (Otsuka Pharmaceutical Co., Ltd.) containing Tween 80] containing no test compound were orally administered to separate groups of the mice (0.1 ml per 10 g of body weight). One hour after the administration of the test compound, the forelimbs of each mouse and subsequently the hindlimbs of the same mouse were placed on a 4.5 cm-high, 1.0 cm-wide bar and catalepsy was estimated. All of the test compounds were orally administered at a dose of 10 mg/kg, and L-DOPA (100 mg/kg) and benserazide (25 mg/kg) were intraperitoneally administered together as a control experiment. The catalepsy score and the standard of judgment are shown below.
The effect of the compounds was evaluated by the total of the catalepsy scores of five mice in each group (25 points at the full). The groups wherein the total score was not more than 20 points were estimated to be effective. The number of the animals showing remission against catalepsy is the number of the mice for which the catalepsy score was not more than 4 points.

[2] = test system: Parkinson's Disease Model in Mouse; experiment: Effect on locomotor activity of Parkinson's disease model in mouse (MPTP-treated mice, Automex-II horizontal activity); assay type: in vivo, male C57BL/6 mice
Procedure: 1-Methyl-4-phenyl-1,2,3,6-tetrahydropyridine (MPTP) causes symptoms of Parkinson's disease in humans [Science, 219, 979 (1983)]. It is reported that an experimental Parkinson's disease model was obtained by administering MPTP to mice [Science, 224, 1451 (1984)]. If a compound is effective on the experimental Parkinson's disease model in mouse, the compound can be expected to have a therapeutic effect on Parkinson's disease.
The experiment was performed by using several groups of 7-weeks-old male C57BL/6 mice (weighing 20 to 21 g, Japan SLC), each group consisting of 8 mice. MPTP (Aldrich Chemical Co., Inc.) dissolved in a physiological saline solution (Otsuka Pharmaceutical Co., Ltd.) was intraperitoneally administered to each mouse once a day for five consecutive days at a dose of 30 mg/kg. A test compound was suspended in injectable distilled water (Otsuka Phamaceutical Co., Ltd.) containing Tween 80 [polyoxyethylene (20) sorbitan monooleate]. L-DOPA (Kyowa Hakko Kogyo Co., Ltd.) was suspended in 0.3% CMC (sodium carboxylmethylcellulose). Thirty minutes after the final MPTP administration, the test compound suspensions and the control suspension [injectable distilled water (Otsuka Pharmaceutical Co., Ltd.) containing Tween 80] containing no test compound were orally administered to separate groups of the mice (0.1 ml per 10 g of body weight). The amount of active movements (horizontal activity) of each mouse was measured by using Automex-II (Columbus Instruments International Corp.) for the period of 30 minutes starting 30 minutes after the administration of the test compound. The effect of the compounds was evaluated by comparing the average counts of the active movements of the test compound-administered groups with those of the control groups. A significant difference test was performed by using Student's t-test.

[3] = test system: dd-strain male mice; experiment: Acute toxicity test (minimum lethal dose, oral); assay type: in vivo; conditions: oral administration, mortality seven days after administration, three mice per group
Procedure: Test compounds were orally administered to groups of dd-strain male mice weighing 20±1 g, each group consisting of three mice. Seven days after the administration, minimum lethal dose (MLD) of each compound was determined by observing the mortality.

[4] = Table 3-1, test compound 10 mg/kg orally, 30 min count starting 30 min after dosing, normal control 1875 ± 77.7, MPTP control 207 ± 85.5
[5] = Table 3-5, test compound 40 mg/kg orally, normal control 2252 ±210.1, MPTP control 18 ± 8.4
[6] = Table 4-2, 0.3% Tween 80 control 25

CCCn1c(=O)c2c(nc(/C=C/c3ccc(OC)c(OC)c3)n2C)n(CCC)c1=O [Compound 1, (E)-8-(3,4-dimethoxystyryl)-7-methyl-1,3-dipropylxanthine]
inhibition in vivo at 10 mg/kg ([1]; Table 4-1): 48% | Number of the Animals Showing Remission ([1]; Table 4-1): 5 | Total Score ([1]; Table 4-1, 0.3% CMC control 25): 13 points | Amount of Active Movements (average count ± S.E.M) [2, 4]: 628 ±174.5 count | MLD [3]: > 300 mg/kg

COc1cc(/C=C/c2nc3c(c(=O)n(C)c(=O)n3C)n2C)cc(OC)c1OC [Compound 2, (E)-8-(3,4,5-trimethoxystyryl)caffeine]
inhibition in vivo at 10 mg/kg ([1]; Table 4-1): 56% | Number of the Animals Showing Remission ([1]; Table 4-1): 5 | Total Score ([1]; Table 4-1, 0.3% CMC control 25): 11 points | Amount of Active Movements (average count ± S.E.M) [2, 4]: 1134 ±267.0 count | MLD [3]: > 300 mg/kg

CCCn1c(=O)c2c(nc(/C=C/c3ccc(OC)cc3)n2C)n(CCC)c1=O [Compound 6, (E)-8-(4-methoxystyryl)-7-methyl-1,3-dipropylxanthine]
inhibition in vivo at 10 mg/kg ([1]; Table 4-1): 24% | Number of the Animals Showing Remission ([1]; Table 4-1): 3 | Total Score ([1]; Table 4-1, 0.3% CMC control 25): 19 points | MLD [3]: > 300 mg/kg

C=CCn1c(=O)c2c(nc(/C=C/c3cc(OC)c(OC)c(OC)c3)n2C)n(CC=C)c1=O [Compound 7, (E)-1,3-diallyl-7-methyl-8-(3,4,5-trimethoxystyryl)xanthine]
inhibition in vivo at 10 mg/kg ([1]; Table 4-1): 48% | Number of the Animals Showing Remission ([1]; Table 4-1): 4 | Total Score ([1]; Table 4-1, 0.3% CMC control 25): 13 points | MLD [3]: > 300 mg/kg

CCCCn1c(=O)c2c(nc(/C=C/c3cc(OC)c(OC)c(OC)c3)n2C)n(CCCC)c1=O [Compound 8, (E)-1,3-dibutyl-7-methyl-8-(3,4,5-trimethoxystyryl)xanthine]
Amount of Active Movements (average count ± S.E.M) [2, 5]: 43 ± 28.3 count | MLD [3]: > 300 mg/kg

CCCn1c(=O)c2nc(/C=C/c3cc(OC)c(OC)c(OC)c3)[nH]c2n(CCC)c1=O [Compound 9, (E)-1,3-dipropyl-8-(3,4,5-trimethoxystyryl) xanthine]
Amount of Active Movements (average count ± S.E.M) [2, 5]: 41 ± 18.0 count | MLD [3]: > 300 mg/kg

COc1cc(/C=C/c2nc3c([nH]2)c(=O)n(C)c(=O)n3C)cc(OC)c1OC [Compound 10, (E)-8-(3,4,5-trimethoxystyryl)theophylline]
Amount of Active Movements (average count ± S.E.M) [2, 5]: 32 ± 21.2 count | MLD [3]: > 300 mg/kg

CCCn1c(=O)c2c(nc(/C=C/c3ccc(OC)c(C)c3C)n2C)n(CCC)c1=O [Compound 13, (E)-8-(4-methoxy-2,3-dimethylstyryl)-7-methyl-1,3-dipropylxanthine]
inhibition in vivo at 10 mg/kg ([1]; Table 4-1): 80% | Number of the Animals Showing Remission ([1]; Table 4-1): 5 | Total Score ([1]; Table 4-1, 0.3% CMC control 25): 5 points | MLD [3]: > 300 mg/kg

CCCn1c(=O)c2c(nc(/C=C/c3ccc(OC)c(C)c3OC)n2C)n(CCC)c1=O [Compound 15, (E)-8-(2,4-dimethoxy-3-methylstyryl)-7-methyl-1,3-dipropylxanthine]
inhibition in vivo at 10 mg/kg ([1]; Table 4-1): 24% | Number of the Animals Showing Remission ([1]; Table 4-1): 4 | Total Score ([1]; Table 4-1, 0.3% CMC control 25): 19 points | MLD [3]: > 300 mg/kg

CCCn1c(=O)c2[nH]c(/C=C/c3ccc4c(c3)OCCO4)nc2n(CCC)c1=O [Compound 16, (E)-8-[2-(1,4-benzodioxan-6-yl)vinyl]-1,3-dipropylxanthine]
inhibition in vivo at 10 mg/kg ([1]; Table 4-1): 20% | Number of the Animals Showing Remission ([1]; Table 4-1): 4 | Total Score ([1]; Table 4-1, 0.3% CMC control 25): 20 points | MLD [3]: > 300 mg/kg

CCCn1c(=O)c2[nH]c(/C=C/c3ccc4c(c3)OCO4)nc2n(CCC)c1=O [Compound 18, (E)-8-(3,4-methylenedioxystyryl)-1,3-dipropylxanthine]
inhibition in vivo at 10 mg/kg ([1]; Table 4-1): 20% | Number of the Animals Showing Remission ([1]; Table 4-1): 4 | Total Score ([1]; Table 4-1, 0.3% CMC control 25): 20 points | MLD [3]: > 300 mg/kg

CCCn1c(=O)c2c(nc(/C=C/c3ccc4c(c3)OCO4)n2C)n(CCC)c1=O [Compound 19, (E)-7-methyl-8-(3,4-methylenedioxystyryl)-1,3-dipropylxanthine]
inhibition in vivo at 10 mg/kg ([1]; Table 4-1): 24% | Number of the Animals Showing Remission ([1]; Table 4-1): 3 | Total Score ([1]; Table 4-1, 0.3% CMC control 25): 19 points | MLD [3]: > 300 mg/kg

CCCn1c(=O)c2nc(/C=C/c3ccc(OC)c(OC)c3OC)[nH]c2n(CCC)c1=O [Compound 20, (E)-1,3-dipropyl-8-(2,3,4-trimethoxystyryl)xanthine]
inhibition in vivo at 10 mg/kg ([1]; Table 4-1): 24% | Number of the Animals Showing Remission ([1]; Table 4-1): 3 | Total Score ([1]; Table 4-1, 0.3% CMC control 25): 19 points | MLD [3]: > 300 mg/kg

CCCn1c(=O)c2c(nc(/C=C/c3cc(OC)c(OC)cc3OC)n2C)n(CCC)c1=O [Compound 23, (E)-7-methyl-1,3-dipropyl-8-(2,4,5-trimethoxystyryl)xanthine]
inhibition in vivo at 10 mg/kg ([1]; Table 4-1): 28% | Number of the Animals Showing Remission ([1]; Table 4-1): 4 | Total Score ([1]; Table 4-1, 0.3% CMC control 25): 18 points | MLD [3]: > 300 mg/kg

CCCn1c(=O)c2[nH]c(/C=C/c3ccc(OC)cc3OC)nc2n(CCC)c1=O [Compound 24, (E)-8-(2,4-dimethoxystyryl)-1,3-dipropylxanthine]
inhibition in vivo at 10 mg/kg ([1]; Table 4-1): 24% | Number of the Animals Showing Remission ([1]; Table 4-1): 4 | Total Score ([1]; Table 4-1, 0.3% CMC control 25): 19 points | MLD [3]: > 100 mg/kg

CCCn1c(=O)c2c(nc(/C=C/c3ccc(OC)cc3OC)n2C)n(CCC)c1=O [Compound 25, (E)-8-(2,4-dimethoxystyryl)-7-methyl-1,3-dipropylxanthine]
inhibition in vivo at 10 mg/kg ([1]; Table 4-2): 52% | Number of the Animals Showing Remission ([1]; Table 4-2): 5 | Total Score [1, 6]: 12 points | MLD [3]: > 300 mg/kg

CCCn1c(=O)c2c(nc(/C=C/c3ccc(C)c(C)c3)n2C)n(CCC)c1=O [Compound 31, (E)-8-(3,4-dimethylstyryl)-7-methyl-1,3-dipropylxanthine]
inhibition in vivo at 10 mg/kg ([1]; Table 4-2): 28% | Number of the Animals Showing Remission ([1]; Table 4-2): 4 | Total Score [1, 6]: 18 points | MLD [3]: > 100 mg/kg

CCCn1c(=O)c2c(nc(/C=C/c3ccc(OCC)cc3)n2C)n(CCC)c1=O [Compound 48, (E)-8-(4-ethoxystyryl)-7-methyl-1,3-dipropylxanthine]
inhibition in vivo at 10 mg/kg ([1]; Table 4-2): 76% | Number of the Animals Showing Remission ([1]; Table 4-2): 5 | Total Score [1, 6]: 6 points | MLD [3]: > 100 mg/kg

CCCOc1ccc(/C=C/c2nc3c(c(=O)n(CCC)c(=O)n3CCC)n2C)cc1 [Compound 50, (E)-7-methyl-8-(4-propoxystyryl)-1,3-dipropylxanthine]
inhibition in vivo at 10 mg/kg ([1]; Table 4-2): 24% | Number of the Animals Showing Remission ([1]; Table 4-2): 3 | Total Score [1, 6]: 19 points | MLD [3]: > 100 mg/kg

CCCn1c(=O)c2c(nc(/C=C/c3ccc(O)c(O)c3)n2C)n(CCC)c1=O [Compound 53, (E)-8-(3,4-dihydroxystyryl)-7-methyl-1,3-dipropylxanthine]
inhibition in vivo at 10 mg/kg ([1]; Table 4-2): 20% | Number of the Animals Showing Remission ([1]; Table 4-2): 4 | Total Score [1, 6]: 20 points | MLD [3]: > 100 mg/kg

CCCn1c(=O)c2[nH]c(/C=C/c3cc(Br)c(OC)c(OC)c3)nc2n(CCC)c1=O [Compound 59, (E)-8-(3-bromo-4,5-dimethoxystyryl)-1,3-dipropylxanthine]
inhibition in vivo at 10 mg/kg ([1]; Table 4-2): 24% | Number of the Animals Showing Remission ([1]; Table 4-2): 5 | Total Score [1, 6]: 19 points | MLD [3]: > 300 mg/kg
